Reference: PubChem BioAssay AID1996
≈ marks a conversion by molar mass, not a printed value.

Details: buffer; pH 7.4; 200.0 µM

Structure (SMILES) | solubility kinetic [µg/mL]
COc1ccc(CN2CCNCC2)cc1.Cl | > 36.4
COc1ccc(/C=C/C(=O)OC(C)CN2CCCCC2)cc1.Cl (stereo not given) | 49.4
CC(C)=Cc1oc2ccc([N+](=O)[O-])cc2c1N1CCOCC1 | < 0.3
O=C(Nc1cccc2cccnc12)c1ccc(Cl)cc1Cl | < 0.3
O=C(/C=C/C=C/c1ccccc1)CC1(O)C(=O)Nc2ccccc21 (stereo not given) | > 47.9
Cc1ccc2nc(NC(=O)c3ccc(Br)o3)sc2c1 | < 0.4
CCCCOC(=O)c1ccc(NC(=O)C(=O)NCc2ccccn2)cc1 | 0.8 (≈ 2.25 µM)
Cc1ccc(-c2csc(N=C(N)N)n2)c(C)c1 | 8 (≈ 32.5 µM)
CCC(CC)C(=O)c1c[nH]c(C(=O)NCc2cccnc2)c1 | 42.2 (≈ 141 µM)
O=C1CC(C(=O)NC2CCCCC2)C2(CCCCC2)O1 (stereo not given) | > 41.9
Cc1nnc(SCC(=O)NC23CC4CC(CC(C4)C2)C3)s1 | > 48.5
CN(CC(=O)Nc1ccc(F)cc1)C(=O)CSc1nnc(Cc2ccccc2)o1 | > 62.2
CCCCc1nc(C(N)=O)c2[nH]c(=O)n(-c3ccc(OCC)cc3)c2n1 | 5.6 (≈ 15.8 µM)
S=C(NCc1ccccc1)Nc1ccncc1 | 30 (≈ 123 µM)
Cc1ccc(OCC(=O)Nc2cccnc2Cl)cc1C | 0.8 (≈ 2.75 µM)
Cc1c(C(=O)N2CCN(c3ncccn3)CC2)oc2ccc(F)cc12 | 9.5 (≈ 27.9 µM)
CCNc1nc(SCC(=O)OC)nc(N(C)C)n1 | > 40.7
COC(=O)c1[nH]c2cc(OC)ccc2c1N=CN(C)C | 38.4 (≈ 139 µM)
COc1cc(/C=N/NC(=O)CNC(=O)c2ccncc2)ccc1O | > 49.2
CCNC(=O)NC(=O)C(C)OC(=O)CCCc1nc2ccccc2s1 (stereo not given) | 49.4 (≈ 136 µM)
CC1(NC(=S)Nc2ccccc2)CCS(=O)(=O)C1 (stereo not given) | > 42.7
COC(=O)c1cc(Br)c(N)cc1OC | > 39
COCCNC(=O)c1ccc2c(Cl)c3c(nc2c1)CCC3 | > 45.7
O=C(CN1CCCCC1)Nc1ccccc1Cl | 26.8 (≈ 106 µM)

Structure (SMILES) | solubility kinetic [µg/mL]
CCCCNC(=S)Nc1ccc(SC(F)F)cc1 | > 43.6
COc1ccc(CNC(=O)C2CCCN2C)cc1OC (stereo not given) | 37 (≈ 133 µM)
Cc1c(C(=O)O)sc2nc(/C=C/c3cccc(O)c3)[nH]c(=O)c12 | 35.5 (≈ 108 µM)
CC1(C)CNc2cc(N)ccc2S1 | 26.3 (≈ 135 µM)
O=C(N[C@@H](Cc1c[nH]c2ccccc12)C(=O)O)c1ccccc1Cl | 45.8 (≈ 134 µM)
N#CCCN(Cc1cccs1)C(=O)Nc1ccccc1 | 41.1 (≈ 144 µM)
CC(Sc1nc(N)cc(=O)[nH]1)C(=O)N1CCOCC1 (stereo not given) | > 42.6
COc1ccc(Oc2ncnc3sccc23)cc1 | 14.9 (≈ 57.7 µM)
CCN(c1cccc(C)c1)C1C(=O)c2ccccc2N1C(C)=O (stereo not given) | > 46.3
CC(C)CCNC(=O)C1CCC(=O)N1CCc1ccccc1 (stereo not given) | 42.8 (≈ 142 µM)
Cc1ccc(SCc2ccc(C(=O)Nc3nccs3)o2)cc1 | 2.2 (≈ 6.66 µM)
O=C(Nc1cccnc1)c1ccccc1-c1ccccc1 | > 41.1
COc1cc(-c2nc3ccccn3c2N)ccc1O | > 38.3
CN(C)S(=O)(=O)c1cc(NC(=O)COC(=O)CC2CC3CCC2C3)ccc1Cl (stereo not given) | 13.7 (≈ 31.9 µM)
COc1ccc(NC(=O)c2cc(-c3ccco3)on2)cc1 | 0.8 (≈ 2.81 µM)
O=C(NCc1cccnc1)C(=O)Nc1nc(-c2ccccc2)cs1 | 4.8 (≈ 14.2 µM)
Cc1onc(-c2ccccc2)c1C(=O)Nc1nncs1 | > 42.9
O=C(CN1CCCCCC1)Nc1ccc([N+](=O)[O-])cc1Br | 3 (≈ 8.42 µM)
COc1cccc(NC2=C(NCCO)C(=O)c3ccccc3C2=O)c1 | 47.4 (≈ 140 µM)
CN1C(c2ccccc2)=NO[C@]1(C)c1ccccc1 | 35.9 (≈ 142 µM)
Cc1ccc(NC(=O)COC(=O)c2cccnc2)cc1 | > 40.5
Cc1cc(C)nc(/N=C(\N)N2CCc3ccccc32)n1 | 37.1 (≈ 139 µM)
CCc1c(C(=O)Nc2ccc(C)c(C)c2)[nH]c(C)c1C(C)=O | 3 (≈ 10.1 µM)
O=C(c1ccc(-c2ccccc2)cc1)N1CCN(c2ccccc2F)CC1 | 1.8 (≈ 4.99 µM)

Structure (SMILES) | solubility kinetic [µg/mL]
CC(C)(C)C(=O)Nc1c(Cl)cccc1OC(F)(F)F | 34.2 (≈ 116 µM)
COc1cc2c(cc1OC)C(C)N(C(=O)c1c(C)noc1C)CC2 (stereo not given) | 2.7 (≈ 8.17 µM)
Cc1cccc(S(=O)(=O)N2CCCc3ccccc32)c1 | 6.7 (≈ 23.3 µM)
Cc1ccccc1OCC(=O)Nc1ccc([N+](=O)[O-])cc1 | 0.4 (≈ 1.4 µM)
Cc1cc(=O)oc2cc(OCC(=O)N3CCOCC3)c(Cl)cc12 | > 50.7
COc1cc(/C=C2\SC(N)=NC2=O)cc(Br)c1O | 1.7 (≈ 5.16 µM)
CCOc1cccc(CN2CCN(Cc3ccc(C)o3)C(CCO)C2)c1O (stereo not given) | > 56.2
CCc1ccc(/C([O-])=C(/C(=S)NCCN2CCOCC2)[n+]2ccccc2)cc1 | 55.4 (≈ 139 µM)
CN(C)S(=O)(=O)c1cc(C(=O)NCc2ccccc2)c(Cl)cc1Cl | 47.1 (≈ 122 µM)
COc1cc(C2C(C#N)=C(SC)NC3=C2C(=O)CCC3)ccc1O (stereo not given) | > 51.4
COC(=O)C1Cc2ccccc2CN1S(=O)(=O)c1ccc(C)cc1 (stereo not given) | 19.6 (≈ 56.7 µM)
Nc1[nH]c(=O)[nH]c(=O)c1N=Nc1ccc(C(=O)O)cc1 | > 41.3
CN(C)c1ccc(C(O)Cc2nc3ccccc3n2C)cc1 (stereo not given) | 12.1 (≈ 41 µM)
CC(=O)c1c(C)[nH]c(C(=O)COC(=O)c2nccnc2N)c1C | 11.9 (≈ 37.6 µM)
CC(C)(C)N=C1C([N+](=O)[O-])=CC=C2C1=NC1(CCCCC1)N2O | 45.3 (≈ 142 µM)
Cc1ccc(CNC(=O)CSc2ccsc2[N+](=O)[O-])cc1 | 5.3 (≈ 16.4 µM)
CCC(=O)Nc1cccc(C(=O)Nc2nccs2)c1 | > 41.3
Cc1c(C(=O)N2CCC2)oc2ccc(Br)cc12 | 19.5 (≈ 66.3 µM)
N#Cc1cccnc1N1CCC(C(N)=O)CC1 | > 34.5
CCOC(=O)C1CCCN(C(=O)c2cc(-c3ccco3)nc3ccccc23)C1 (stereo not given) | > 56.8
CCc1ccccc1NC(=O)c1ccc2c(c1)CCN2S(C)(=O)=O | 0.8 (≈ 2.32 µM)
C=CCSc1nc(N2CCOCC2)c2c(c1C#N)CC(C)(C)N(C)C2 | 49.9 (≈ 139 µM)
O=[N+]([O-])c1cccc(S(=O)(=O)NCCc2cccs2)c1 | > 46.9
Cc1cc(-c2csc(Nc3ccccn3)n2)ccc1F | < 0.2

Structure (SMILES) | solubility kinetic [µg/mL]
Cc1noc(COc2ccccc2OCC(N)=O)n1 | > 39.5
COc1cc(OC)cc(C(=O)Nc2cccc3ccccc23)c1 | 1.9 (≈ 6.18 µM)
N#Cc1nc(-c2ccco2)oc1NCc1ccccc1Cl | 1.1 (≈ 3.67 µM)
CCc1c(C(=O)N2CCCN(C)CC2)csc1C | > 40
Cc1ccc(C(=O)NCC(=O)Nc2ncccc2C)s1 | > 43.4
CCCCn1c(=O)cc(C)n(-c2ccccc2)c1=O | 22.8 (≈ 88.3 µM)
CC(C)S(=O)(=O)c1csc(C(=O)Nc2ccc(F)cc2)c1N | 13.6 (≈ 39.7 µM)
COc1cccc(NC(=O)c2cccc(C(=O)Nc3cccc(OC)c3)c2)c1 | < 0.4
N#CCC(=O)Nc1ccc(C(=O)OCC(=O)NC(=O)NCc2ccco2)cc1 | 17.4 (≈ 45.3 µM)
CN(c1ccccc1)c1nc(N)c([N+](=O)[O-])c(N2CCOCC2)n1 | 47.6 (≈ 144 µM)
COC(=O)c1c(C(C)=O)c(C)n(C)c1C | > 31.4
N#Cc1cnc(N)c(Br)c1 | 27.8 (≈ 140 µM)
COc1ccc(OCC(=O)Nc2nc3c(s2)CCCC3)cc1 | 14.3 (≈ 44.9 µM)
CC(=O)Nc1ccc(S(=O)(=O)N(C)c2ccc(OCCOc3ccccc3F)cc2)cc1 | 6.5 (≈ 14.2 µM)
COc1ccc(/C=C/C(=O)OCC(=O)N2CCCCCC2)cc1OC | 37.7 (≈ 109 µM)
Cc1cc(C)nc(SCC(=O)c2ccc(F)cc2)n1 | 38.5 (≈ 139 µM)
N/C(=N\OC(=O)c1cc([N+](=O)[O-])ccc1Cl)c1ccccn1 | 11.2 (≈ 34.9 µM)
CC(C)CNC(C)C(=O)Nc1ccc(S(N)(=O)=O)cc1 (stereo not given) | > 44.9
COc1ccc(C(CNC(=O)c2cccc(S(=O)(=O)N3CCOCC3)c2)N2CCOCC2)cc1 (stereo not given) | > 73.4
CC(C)=CC(=O)Nc1ccc(S(=O)(=O)Nc2ccccn2)cc1 | 46.2 (≈ 139 µM)
Cc1cc(C)c(C2=CSC3=NS(=O)(=O)CCN23)c(C)c1 | > 46.3
CCCNc1nc(OC)nc(N2CC3CC(C2)c2cccc(=O)n2C3)n1 (stereo not given) | 50.6 (≈ 142 µM)
CC1CCCN(C(=O)C2CC(=O)N(c3ccc(Cl)cc3)C2)C1 (stereo not given) | > 48.1
CCCC(=O)Nc1cccc(Oc2ccc3c(c2)C(=O)NC3=O)c1 | 11.6 (≈ 35.8 µM)

Structure (SMILES) | solubility kinetic [µg/mL]
Cn1cc([N+](=O)[O-])c(C(=O)NCC(=O)O)n1 | > 34.2
O=C(O)c1cccc(CN2C(=O)c3ccccc3C2=O)c1 | > 42.2
Cc1nc(C(=O)NNC(=O)c2cccc(Cl)c2)c(C(F)(F)F)o1 | > 52.2
CSc1ccc(C2NC(=O)c3ccccc3N2)cc1 (stereo not given) | 2.6 (≈ 9.62 µM)
Cc1ccc(NC(=O)CC2(CC(=O)O)CCCC2)cc1 | > 41.3
COc1ccc(CCNC(=O)c2cc(Cl)nc3ccccc23)cc1 | 5.9 (≈ 17.3 µM)
CCSc1nsc(NC(=O)Nc2cccc(OC)c2)n1 | 1.7 (≈ 5.48 µM)
Cc1ccc(CNc2ccc3c(c2)nc(C)n3C)cc1 | 38.3 (≈ 144 µM)
COc1ccc(NC(=O)CN2C(=O)NC(C)(c3ccc4c(c3)OCCO4)C2=O)cc1S(N)(=O)=O (stereo not given) | > 73.6
CC(=O)Nc1ccc(NC(=O)CCCc2ccccc2)cc1 | 22.9 (≈ 77.3 µM)
COc1cc(/C=C2\SC(N)=NC2=O)cc(Cl)c1O | 9.6 (≈ 33.7 µM)
CCOC(=O)C1=C(CCl)NC(=O)NC1c1ccc2c(c1)OCO2 (stereo not given) | > 50.8
Cc1ccc[n+](CC(=O)N2CCCc3ccccc32)c1.[Cl-] | > 45.4
CNC(=O)CO/N=C/c1ccc(N(C)C)cc1 | > 35.3
Cn1cccc1C(=O)OCC(=O)NCc1ccc2c(c1)OCO2 | > 47.4
Fc1cccc(COc2ccccc2C(=S)N2CCCC2)c1 | 15 (≈ 47.6 µM)
COc1ccc(C(=O)Nc2cccc3nc(C)ccc23)c(OC)c1 | 11.7 (≈ 36.3 µM)
O=C(CSC1=NCCN1)NC(c1ccccc1)c1ccccc1 | 44 (≈ 135 µM)
N#Cc1ccc(OC(=O)c2cnccn2)cc1 | 31.7 (≈ 141 µM)
O=C(Nc1ccccc1Cl)c1ccccc1 | 19.2 (≈ 82.9 µM)
COC(=O)c1ccc(Nc2ccc3nonc3c2[N+](=O)[O-])cc1 | < 0.2
CC(C)CN(CC(C)C)C(=S)Nc1ccc(Cl)cc1 | 2.2 (≈ 7.36 µM)
C/C(=C\c1cccc(Cl)c1)C(=O)c1c(C)cc(C)[nH]c1=O | > 45.3
COc1ccc(C(=O)NC(=S)NCc2ccco2)cc1 | 4.6 (≈ 15.8 µM)
